Assay results published in patent publication US10172358B2, “Thiopicolinamide compounds with fungicidal activity” (Dow AgroSciences LLC, priority 2016, dated 2019).
Where two headings read alike, the source gives them in different places.

How the values were obtained:
Zymoseptoria tritici = assay: Fungicidal activity: leaf blotch of wheat (SEPTTR), disease control on wheat seedlings; type: in vivo, Zymoseptoria tritici on wheat plants (variety Yuma); details: for pest or weed control at 100 ppm: high volume application; for pest or weed control at 121.5 g/ha: low volume application, 121.5 g/H
Description: Evaluation of Fungicidal Activity: Leaf Blotch of Wheat (Zymoseptoria Tritici; Bayer Code […]) Technical grades of materials were dissolved in acetone, which were then mixed with nine volumes of water (H2O) containing 110 ppm Triton X-100. The fungicide solutions were applied onto wheat seedlings using an automated booth sprayer to run-off. All sprayed plants were allowed to air dry prior to further handling. All fungicides were evaluated using the aforementioned method for their activity vs. all target diseases, unless stated otherwise. Wheat leaf blotch and brown rust activity were also evaluated using track spray applications, in which case the fungicides were formulated as EC formulations, containing 0.1% Trycol 5941 in the spray solutions. Wheat plants (variety Yuma) were grown from seed in a greenhouse in 50% mineral soil/50% soil-less Metro mix until the first leaf was fully emerged, with 7-10 seedlings per pot. These plants were inoculated with an aqueous spore suspension of Zymoseptoria tritici either prior to or after fungicide treatments. After inoculation the plants were kept in 100% relative humidity (one day in a dark dew chamber followed by two to three days in a lighted dew chamber at 20° C.) to permit spores to germinate and infect the leaf. The plants were then transferred to a greenhouse set at 20° C. for disease to develop. When disease symptoms were fully expressed on the 1st leaves of untreated plants, infection levels were assessed on a scale of 0 to 100 percent disease severity. Percent disease control was calculated using the ratio of disease severity on treated plants relative to untreated plants.

Puccinia triticina = assay: Fungicidal activity: wheat brown rust (PUCCRT), disease control on wheat seedlings; type: in vivo, Puccinia triticina on wheat plants (variety Yuma); details: for pest or weed control at 100 ppm: high volume application; for pest or weed control at 121.5 g/ha: low volume application, 121.5 g/H
Description: Technical grades of materials were dissolved in acetone, which were then mixed with nine volumes of water (H2O) containing 110 ppm Triton X-100. The fungicide solutions were applied onto wheat seedlings using an automated booth sprayer to run-off. All sprayed plants were allowed to air dry prior to further handling. All fungicides were evaluated using the aforementioned method for their activity vs. all target diseases, unless stated otherwise. Wheat leaf blotch and brown rust activity were also evaluated using track spray applications, in which case the fungicides were formulated as EC formulations, containing 0.1% Trycol 5941 in the spray solutions. Evaluation of Fungicidal Activity: Wheat Brown Rust (Puccinia triticina; Synonym: Puccinia recondita f. Sp. Tritici; Bayer Code PUCCRT) Wheat plants (variety Yuma) were grown from seed in a greenhouse in 50% mineral soil/50% soil-less Metro mix until the first leaf was fully emerged, with 7-10 seedlings per pot. These plants were inoculated with an aqueous spore suspension of Puccinia triticina either prior to or after fungicide treatments. After inoculation the plants were kept in a dark dew room at 22° C. with 100% relative humidity overnight to permit spores to germinate and infect the leaf. The plants were then transferred to a greenhouse set at 24° C. for disease to develop. Fungicide formulation, application and disease assessment followed the procedures as described in the Example A. The results of the evalution are shown below in Table 4.

Phakopsora pachyrhizi = assay: Fungicidal activity: Asian soybean rust (PHAKPA), disease control on soybean seedlings; type: in vivo
Description: Evaluation of Fungicidal Activity: Asian Soybean Rust (Phakopsora Pachyrhizi; Bayer Code PHAKPA)
Technical grades of materials were dissolved in acetone, which were then mixed with nine volumes of H2O containing 0.011% Tween 20. The fungicide solutions were applied onto soybean seedlings using an automated booth sprayer to run-off. All sprayed plants were allowed to air dry prior to further handling.
Soybean plants (variety Williams 82) were grown in soil-less Metro mix, with one plant per pot. Two weeks old seedlings were used for testing. Plants were inoculated either 3 days prior to or 1 day after fungicide treatments. Plants were incubated for 24 h in a dark dew room at 22° C. and 100% relative humidity then transferred to a growth room at 23° C. for disease to develop. Disease severity was assessed on the sprayed leaves.

[1] = 24 h, 1 day protectant, read-out: SEPTTR 1DP disease control, HV activity at 100 ppm
[2] = 72 h, 3 day curative, read-out: SEPTTR 3DC disease control, HV activity at 100 ppm
[3] = 24 h, 1 day protectant, read-out: PUCCRT 1DP disease control, HV activity at 100 ppm
[4] = 72 h, 3 day curative, read-out: PUCCRT 3DC disease control, HV activity at 100 ppm
[5] = 24 h, 1 day protectant, read-out: PHAKPA 1DP disease control at 25 ppm
[6] = 24 h, 1 day protectant, read-out: SEPTTR 1DP disease control, LV activity at 121.5 g/H
[7] = 72 h, 3 day curative, read-out: SEPTTR 3DC disease control, LV activity at 121.5 g/H
[8] = 24 h, 1 day protectant, read-out: PUCCRT 1DP disease control, LV activity at 121.5 g/H
[9] = 72 h, 3 day curative, read-out: PUCCRT 3DC disease control, LV activity at 121.5 g/H
[10] = 72 h, 3 day curative, read-out: PHAKPA 3DC disease control at 25 ppm

Compound	melting point [°C]	pest or weed control at 100 ppm (Zymoseptoria tritici; [1]) [%]	pest or weed control at 100 ppm (Zymoseptoria tritici; [2]) [%]	pest or weed control at 100 ppm (Puccinia triticina; [3]) [%]	pest or weed control at 100 ppm (Puccinia triticina; [4]) [%]	pest or weed control at 25 ppm (Phakopsora pachyrhizi; [5]) [%]	pest or weed control at 121.5 g/ha (Zymoseptoria tritici; [6]) [%]	pest or weed control at 121.5 g/ha (Zymoseptoria tritici; [7]) [%]	pest or weed control at 121.5 g/ha (Puccinia triticina; [8]) [%]	pest or weed control at 121.5 g/ha (Puccinia triticina; [9]) [%]	pest or weed control at 25 ppm (Phakopsora pachyrhizi; [10]) [%]
COc1ccnc(C(=S)N[C@@H](C)C(=O)O[C@@H](C)[C@H](Oc2ccccc2)c2ccc(F)cc2C)c1O [Compound 35]	45 to 57	> 80	> 80	> 80	≤ 80						
COc1ccnc(C(=S)N[C@@H](C)C(=O)O[C@H](C(C)C)[C@H](C)Oc2ccc(F)cc2)c1O [Compound 36]	141 to 148	> 80	≤ 80	> 80	> 80						
CCC[C@@H](Oc1ccc(C)cc1)[C@H](C)OC(=O)[C@H](C)NC(=S)c1nccc(OC)c1O [Compound 37]	125 to 133	≤ 80		> 80	> 80						
COc1ccnc(C(=S)N[C@@H](C)C(=O)O[C@@H](C)[C@H](Oc2ccc(Cl)cc2)C2CCCC2)c1O [Compound 38]	49 to 57	> 80	≤ 80	> 80	> 80						
COc1ccnc(C(=S)N[C@@H](C)C(=O)O[C@@H](C)[C@H](Oc2ccc(Cl)cc2)C2CCCC2)c1OC(C)=O [Compound 71]						≤ 80	> 80	≤ 80	> 80	> 80	
COc1ccnc(C(=S)N[C@@H](C)C(=O)O[C@@H](C)[C@@H](c2ccccc2)c2ccc(F)cc2C)c1OC(C)=O [Compound 72]						> 80	> 80	> 80	> 80	> 80	> 80
COc1ccnc(C(=S)N[C@@H](C)C(=O)O[C@H](C(C)C)[C@H](C)Oc2ccc(F)cc2)c1OC(C)=O [Compound 73]						> 80	> 80	> 80	> 80	> 80	> 80
COc1ccnc(C(=S)N[C@@H](C)C(=O)O[C@@H](C)[C@H](Oc2ccccc2)c2ccc(F)cc2C)c1OC(C)=O [Compound 74]						≤ 80	> 80	> 80	> 80	≤ 80	≤ 80
COc1ccnc(C(=S)N[C@@H](C)C(=O)O[C@@H](C)[C@H](Oc2ccccc2)c2ccc(F)cc2Cl)c1OC(C)=O [Compound 75]						≤ 80	> 80	> 80	> 80	≤ 80	≤ 80
COc1ccnc(C(=S)N[C@@H](C)C(=O)O[C@@H](C)[C@H](Oc2cccc(F)c2)C(C)C)c1OC(C)=O [Compound 77]						> 80	≤ 80	> 80	> 80	> 80	≤ 80
COc1ccnc(C(=S)N[C@@H](C)C(=O)O[C@@H](C)C(c2ccc(F)cc2)c2ccc(F)cc2)c1OC(C)=O [Compound 78]						≤ 80	> 80	> 80	> 80	≤ 80	
